{"source": "patent US11591355B2", "about": "(Peloton Therapeutics, Inc., priority 2017, dated 2023)", "key": {"[1]": {"target": "T1, CD73 on U138 human neuroglioma cells (Homo sapiens, UniProt P21589)", "T1 construct": "U138 cells were obtained from ATCC and cultured in DMEM with 10% FBS; host or cells: U138 human neuroglioma cells", "T1 sequence (P21589 27-549)": "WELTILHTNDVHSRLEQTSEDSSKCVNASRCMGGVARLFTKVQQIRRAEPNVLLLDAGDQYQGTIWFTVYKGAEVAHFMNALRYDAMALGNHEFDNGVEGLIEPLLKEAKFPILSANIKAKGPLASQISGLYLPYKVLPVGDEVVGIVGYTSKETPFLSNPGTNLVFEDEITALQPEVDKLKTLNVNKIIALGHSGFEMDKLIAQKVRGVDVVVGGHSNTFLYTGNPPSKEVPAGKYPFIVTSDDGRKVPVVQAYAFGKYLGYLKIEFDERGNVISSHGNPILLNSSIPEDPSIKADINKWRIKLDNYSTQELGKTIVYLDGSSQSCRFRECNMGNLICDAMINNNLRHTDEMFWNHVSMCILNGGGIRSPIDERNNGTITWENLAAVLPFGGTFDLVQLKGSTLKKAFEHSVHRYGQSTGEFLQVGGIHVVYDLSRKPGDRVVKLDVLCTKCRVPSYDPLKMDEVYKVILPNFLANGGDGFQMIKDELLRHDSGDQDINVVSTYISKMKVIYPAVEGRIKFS", "assay": "CD73 Cell-Based Assay", "conditions": "U138 cells, AMP substrate, 2 hours at 37° C., inorganic phosphate by malachite green", "outline": "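Whole U138 cells washed free of phosphate were incubated with 200 μM AMP (mixture concentration before equal-volume addition) plus compound in HEPES-buffered saline, pH 7.4, for 2 h at 37 °C, 5% CO2. Adenosine-forming activity read as inorganic phosphate released into supernatant by malachite green.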"}, "Human CD73": {"target": "T2, Human CD73 (Homo sapiens, UniProt P21589)", "T2 construct": "purchased R&D Systems; host or cells: CHO cells", "T2 sequence (P21589 27-549)": "T1 sequence (P21589 27-549)", "assay": "CD73 Enzyme Assay", "format": "biochemical", "conditions": "0.25 nM hCD73, 25 μM AMP, kinetic read at 360 nm; read-out: CD73 Enzyme Assay IC50"}}}
{"smiles": "N#Cc1nc(NC2CC3CC3C2)c2cnn([C@@H]3O[C@H](CS(=O)(=O)CP(=O)(O)O)[C@@H](O)[C@H]3O)c2n1", "note": "(stereo partly drawn) [Compound 300, [(2S,3S,4R,5R)-5-[4-(3-bicyclo[3.1.0]-hexanylamino)-6-cyano-pyrazolo[3,4-d]-pyrimidin-1-yl]-3,4-dihydroxy-tetrahydro-furan-2-yl]methyl-sulfonylmethylphos-phonic acid]", "values": [{"measurement": "IC50", "setting": "[1]", "value": "< 10", "unit": "nM"}, {"measurement": "IC50", "setting": "Human CD73", "value": "10 to 100", "unit": "nM"}]}
{"smiles": "O=P(O)(O)CS(=O)(=O)C[C@H]1O[C@@H](n2ccc3c(NC4CCCC4)nc(C(F)(F)F)nc32)[C@H](O)[C@@H]1O", "note": "[Compound 303, [(2S,3S,4R,5R)-5-[4-(cyclopentylamino)-2-(trifluoromethyl)-pyrrolo[2,3-d]-pyrimidin-7-yl]-3,4-dihydroxy-tetrahydro-furan-2-yl]methyl-sulfonylmethylphos-phonic acid]", "values": [{"measurement": "IC50", "setting": "[1]", "value": "10 to 100", "unit": "nM"}, {"measurement": "IC50", "setting": "Human CD73", "value": "10 to 100", "unit": "nM"}]}
{"smiles": "O=P(O)(O)COC[C@H]1O[C@H](c2csc3c(N4CC5CCCC5C4)nc(Cl)nc23)[C@H](O)[C@@H]1O", "note": "(stereo partly drawn) [Compound 304, [(2R,3S,4R,5R)-5-[4-(3,3a,4,5,6,6a-hexa-hydro-1H-cyclopenta-[c]pyrrol-2-yl)-2-chloro-thieno[3,2-d]-pyrimidin-7-yl]-3,4-dihydroxy-tetrahydro-furan-2-yl]methoxy-methylphosphonic acid]", "values": [{"measurement": "IC50", "setting": "[1]", "value": "> 1000", "unit": "nM"}, {"measurement": "IC50", "setting": "Human CD73", "value": "> 1000", "unit": "nM"}]}
{"smiles": "O=P(O)(O)COC[C@H]1O[C@@H](c2csc3c(NC4CCCC4)nc(Cl)nc23)[C@H](O)[C@@H]1O", "note": "[Compound 305, [(2R,3S,4R,5S)-5-[2-chloro-4-(cyclopentyl-amino)thieno[3,2-d]-pyrimidin-7-yl]-3,4-dihydroxy-tetrahydro-furan-2-yl]methoxy-methylphosphonic acid]", "values": [{"measurement": "IC50", "setting": "[1]", "value": "10 to 100", "unit": "nM"}, {"measurement": "IC50", "setting": "Human CD73", "value": "10 to 100", "unit": "nM"}]}
{"smiles": "C[C@H](Nc1nc(C#N)nc2c1cnn2[C@@H]1O[C@H](CS(=O)(=O)CP(=O)(O)O)[C@@H](O)[C@H]1O)c1ccc(F)cc1", "note": "[Compound 307, [(2S,3S,4R,5R)-5-[6-cyano-4-[[(1S)-1-(4-fluorophenyl)ethyl]-amino]pyrazolo[3,4-d]pyrimidin-1-yl]-3,4-dihydroxy-tetrahydro-furan-2-yl]methyl-sulfonylmethylphos-phonic acid]", "values": [{"measurement": "IC50", "setting": "[1]", "value": "< 10", "unit": "nM"}, {"measurement": "IC50", "setting": "Human CD73", "value": "10 to 100", "unit": "nM"}]}
{"smiles": "N#Cc1nc(NC2CCC2)c2cnn([C@@H]3O[C@H](CS(=O)(=O)CP(=O)(O)O)[C@@H](O)[C@H]3O)c2n1", "note": "[Compound 308, [(2S,3S,4R,5R)-5-[6-cyano-4-(cyclobutyl-amino)pyrazolo[3,4-d]-pyrimidin-1-yl]-3,4-dihydroxy-tetrahydro-furan-2-yl]methyl-sulfonylmethylphos-phonic acid]", "values": [{"measurement": "IC50", "setting": "[1]", "value": "< 10", "unit": "nM"}, {"measurement": "IC50", "setting": "Human CD73", "value": "< 10", "unit": "nM"}]}
